Like-named read-outs stand apart in the source and are kept apart here.
Assays:
[1] = Solubility screening of bifenthrin in various solvents; format: physicochemical
Method: Four-milliliter (mL) vials are charged with bifenthrin (10 to 50 wt %), a stir bar, and solvent (90 to 50 wt %). The vials are capped and taped to seal. The vials are secured in a vial rack and shaken on a laboratory shaker for 12 hours at ambient lab temperature (21° C.) and humidity (51%). After 12 hours each sample set is evaluated for solubility of solid:
Yes—Homogeneous clear solution
No—Solids present in the sample

[2] = obtained from Hansen's book, pages 399 and 418; cited from earlier work
[3] = bifenthrin 10 wt % in solvent, shaken 12 hours at 21° C., humidity 51%
[4] = bifenthrin 20 wt % in solvent, shaken 12 hours at 21° C., humidity 51%
[5] = bifenthrin 30 wt % in solvent, shaken 12 hours at 21° C., humidity 51%
[6] = bifenthrin 40 wt % in solvent, shaken 12 hours at 21° C., humidity 51%
[7] = bifenthrin 50 wt % in solvent, shaken 12 hours at 21° C., humidity 51%

Row | Molecule | Solubility of Bifenthrin, 10 wt % [1, 3] | Solubility of Bifenthrin, 20 wt % [1, 4] | Solubility of Bifenthrin, 30 wt % [1, 5] | Solubility of Bifenthrin, 40 wt % [1, 6] | Solubility of Bifenthrin, 50 wt % [1, 7] | Solubility of Bifenthrin, 10 wt % [1] | Solubility of Bifenthrin, 20 wt % [1] | Solubility of Bifenthrin, 30 wt % [1] | Solubility of Bifenthrin, 40 wt % [1] | Solubility of Bifenthrin, 50 wt % [1] | Hansen Parameter δH (hydrogen bonding) [2] | Hansen Parameter δP (polar) [2]
1 | OCCOc1ccccc1 [DOWANOL ™ EPH, ethylene glycol phenyl ether] | NO | NO | NO | NO | NO | – | – | – | – | – | – | –
2 | CC(=O)OCC(C)OC(C)=O (centres unmarked) [DOWANOL ™ PGDA, propylene glycol diacetate] | – | – | – | – | – | YES | YES | YES | NO | NO | – | –
3 | polyethylene glycol monophenyl ether [DOWANOL ™ EPH6] | NO | NO | NO | NO | NO | – | – | – | – | – | – | –
4 | CCCCOCCOC(=O)c1ccccc1 [XU40782.00, ethylene glycol n-butyl ether benzoate] | – | – | – | – | – | YES | YES | YES | NO | NO | – | –
5 | CCCCOCCOCCOC(C)=O [BUTYL CARBITOL ™ ACETATE, diethylene glycol n-butyl ether acetate] | – | – | – | – | – | YES | YES | YES | NO | NO | 8.2 (J/cc)^1/2 | 4.1 (J/cc)^1/2
6 | CCCCOC(C)COC(C)COC(C)CO (centres unmarked) [DOWANOL ™ TPNB, tripropylene glycol n-butyl ether] | – | – | – | – | – | YES | YES | NO | NO | NO | – | –
7 | CC(CO)OCC(C)Oc1ccccc1 (centres unmarked) [DOWANOL ™ DiPPH, dipropylene glycol phenyl ether] | – | – | – | – | – | YES | NO | NO | NO | NO | – | –
8 | CCCCCCCCCCCC(=O)OCC [DIAMOSOLV ™ 323, ethyl laurate] | – | – | – | – | – | YES | YES | NO | NO | NO | – | –
9 | CCCCOCCOC(C)=O [BUTYL CELLOSOLVE ™ ACETATE, ethylene glycol n-butyl ether acetate] | YES | YES | YES | YES | NO | – | – | – | – | – | 8.8 (J/cc)^1/2 | 4.5 (J/cc)^1/2
10 | CC(O)COc1ccccc1 (centres unmarked) [DOWANOL ™ PPH, propylene glycol phenyl ether] | – | – | – | – | – | YES | NO | NO | NO | NO | – | –
11 | CCOCCOCCO [CARBITOL ™, diethylene glycol monoethyl ether] | – | – | – | – | – | YES | YES | NO | NO | NO | – | –

— patent US20200178526A1, “Emulsifiable Concentrates” (priority 2016, published 2020)
